Reference: US8784899B2, “Compositions and methods for cancer treatment” (priority 2005, dated 2014)

How the values were obtained:
Assay type in all cases: cell-based
[1] = test system: NB4 cells; experiment: Growth assay, viable cells by trypan blue exclusion, NB4; conditions: NB4, 100 μM trolox alone, any time point
Protocol: NB4, IM9 and AsR2 cells were seeded at 1×10^5 cells/ml in 24-well plates. Cells were treated with various concentrations of As2O3 or doxorubicin, alone or in combination with 100 μM trolox for six days. Viable cells were counted by trypan blue exclusion on day 1, 3 and 6. All cells were maintained at a density lower than 1×10^6 cells/ml through dilution as required, and media +/− treatment was replaced every third day. MCF-7, MDA-231 and T47D were seeded in 24-well plates at a density of 4000 cells/well. The next day, fresh media containing As2O3+/− trolox was added. On the days indicated, cells were fixed in 10% trichloroacetic acid and subsequently stained with sulforhodamine B (SRB). Bound SRB was solubilized in 10 mM unbuffered Tris and optical density was measured at 570 nm in a microplate reader.

[2] = test system: NB4, AsR2 and IM9 cells; experiment: Apoptosis by propidium iodide staining and flow cytometry; conditions: 48 hours, all concentrations of arsenic tested
Protocol: Quantitation of apoptotic cells was performed as previously described (Hardin et al. J. Immunol. Methods. 1992; 154:99-107). Cells were treated, washed in buffer (PBS/5% FBS/0.01 M NaN3) at 4° C., pelleted, and resuspended in 0.5 ml of hypotonic fluorochrome solution containing 50 μg/ml propidium iodide (PI), 0.1% sodium citrate, and 0.1% Triton X-100™. Fluorescence was measured on a Becton-Dickinson™ FACS Calibur. Cells undergoing DNA fragmentation and apoptosis (those in which PI fluorescence was weaker than the typical G0-G1 cell cycle peak) were quantified using CellQUEST™ software.
To evaluate whether the growth inhibitory effect observed upon combined treatment of As2O3 and trolox in NB4, AsR2 and IM9 cells was due to the induction of apoptosis, cells were treated for 48 hours, subsequently stained with PI and analyzed by flow cytometry. […] To confirm an enhanced induction of apoptotic death, FITC-labeled Annexin V, which detects phosphatidylserine residues appearing on the external surface of early apoptotic cells, was used. Consistent with the increase in the subG0 subpopulation after PI staining, trolox augmented the percentage of cells positive for Annexin V (FIG. 2B lower panels). To further confirm the induction of apoptosis by the combination of As2O3 and trolox, we evaluated caspase 3 activation and PARP cleavage. […] Similar results were obtained with AsR2 and IM9 cells.

[3] = test system: Heme oxygenase-1 (HO-1); experiment: HO-1 protein levels by Western blot; conditions: NB4, IM9 and AsR2 cells, 24 hours
Protocol: Cell extracts were washed with cold PBS and resuspended in 0.1 ml lysis buffer (5 mM NaH2PO4, 1 mM DTT, 10% glycerol, 1 mM PMSF, 10 μg/ml each aprotinin and leupeptin, pH 7.4) at 4° C. Extracts were centrifuged at 14,000 rpm at 4° C., and supernatants were transferred to fresh tubes. Protein concentration was determined with the Bio-Rad™ protein assay (Bio-Rad, Mississauga, Ontario, Canada). To detect HO-1 or PARP, 50 μg of protein was added to an equal volume of 2× sample buffer and run on a 10% SDS-polyacrylamide gel. Proteins were transferred to nitrocellulose membranes (Bio-Rad), stained with Ponceau S in 5% acetic acid to ensure equal protein loading, and blocked with 5% milk in PBS containing 0.5% Triton X-100™ for 1 hour at room temperature. The membrane was hybridized overnight at 4° C. with antibody against PARP (1:1000; Oncogene) or 3 hours with an antibody against HO-1 (1:1000; StressGen). Following three washes with PBS and 0.5% Triton X-100™, blots were incubated with a goat anti-rabbit antibody (1:10,000; PharMingen) for one hour at room temperature. Bands were visualized by enhanced chemiluminescence (Amersham Pharmacia Biotech, Baie d'Urfe, Quebec, Canada). Immunostaining for β-actin was used to confirm equal protein loading. Immune complex kinase assays for c-jun kinase activity were performed as previously described (Davison et al. Blood. 2004; 103: 3496-3502).

[4] = test system: Normal human PBMC; experiment: Colony forming unit assay of peripheral blood mononuclear cells
Protocol: Peripheral blood mononuclear cells (PBMC) were obtained from two healthy normal donors after obtaining informed consent and were collected into tubes containing 7.2 mg K2EDTA. The blood was diluted 1:3 in PBS, layered onto an equal volume of Ficoll-Plaque™ PLUS (Amershan Biosciences, Piscataway, N.J.) and centrifuged at 1500 rpm for 30 minutes. The mononuclear cell layer was collected and washed twice in PBS. Methylcellulose media was prepared by combining IMDM, 30% FBS, 1% bovine serum albumin, 10^−4M 2-mercaptoethanol, 2 mM L-glutamine, 0.1U penicillin, 0.1 μg/ml streptomycin, granulocyte-macrophage colony-stimulating factor (GM-CSF; 10 ng/ml), interleukin-3 (IL-3; 10 ng/ml0) and erythropoietin (EPO; 3U/ml). PBMC were seeded in this media at a concentration of 300,000 cells/ml and treated with or without As2O3, trolox or the combination. Cultures were performed in triplicate in 35 mm^2 dishes and incubated at 37° C. in 4% CO2. Colonies derived from […] (BFU-E) and CFU-GM were counted on day 7 and 13.

For `Cc1c(C)c2c(c(C)c1O)CCC(C)(C(=O)O)O2` (stereo not shown) [trolox, Trolox], the “effect on cell number” value [1] was “no effect on cell number”, the “apoptosis (PI staining)” value [2] was “no effect on the apoptotic rate” and the HO-1 protein induction [3] was “not detected”. For the same compound, the “colony formation (CFU-GM, BFU-E, CFU-E)” value [4] was “did not inhibit colony formation”.
